Reference: patent US10118943B2, “Compounds and methods for inhibiting cell death” (Ramot at Tel-Aviv University Ltd., priority 2012, dated 2018)

What was measured:
[1] = molecular target: T1, full-length human EB3 recombinant protein (Homo sapiens, UniProt Q9UPY8); test: Sulfolink coupling gel-NAP affinity chromatography with recombinant EB3, western analysis; format: binding; settings: 2 mg soluble peptide incubated with recombinant EB3 and column beads
T1 construct: Full-length human EB3 was subcloned into pEX-N-His vector; 6xHis (N, cleaved yes); made in house; host or cells: E. coli BL21(DE3)
Method: Column load, flow through, wash and elution fractions were further analyzed by polyacrylamide gel electrophoresis, followed by western analysis with EB3 antibodies. […] Column chromatography, elution and western blots were performed as above. The extract fractions (flow, wash and elution) were separated by electrophoresis followed by protein detection (FIG. 6).

ADNP+/− mice = test: Object recognition test in ADNP-deficient mice; format: in vivo, mouse; settings: intranasal, twice a day, 1 month, ADNP+/− male mice
Source text: All procedures involving animals were approved by the Animal Care and Use Committee of Tel Aviv University and the National Institutes of Health (Bethesda, Md.). ADNP heterozygous mice, a model for cognitive impairments (Vulih-Shultzman et al., 2007, J. Pharmacol. Exp. Ther. 323:438-449), were housed in a 12-h light/12-h dark cycle facility, and free access to rodent chow and water was available.
SKIP (SEQ ID NO:6) treatment included daily intranasal administrations over a 1 month period to 5-month-old male mice (2 μg/5 μl/mouse/day). For intranasal administration, the peptide was dissolved in a vehicle solution, in which each milliliter included 7.5 mg of NaCl, 1.7 mg of citric acid monohydrate, 3 mg of disodium phosphate dihydrate, and 0.2 mg of benzalkonium chloride solution (50%). SKIP (SEQ ID NO:6) or vehicle solution (DD) was administered to mice hand-held in a semisupine position with nostrils facing the investigator. A pipette tip was used to administer 5 μl/each nostril. The mouse was handheld until the solution was totally absorbed (˜10 s). Nasal SKIP (SEQ ID NO:6) application was performed daily, twice a day, for 1 month (5 days a week). After 1 month, SKIP (SEQ ID NO:6) was applied 2 h before the behavioral tests (described below).
The test includes 2 consecutive days of habituation (five minutes per day) and the experimental day which consists of the three phases. The test was conducted two hours after the daily intranasal SKIP (SEQ ID NO:6). During the first phase (Phase 1, habituation phase), the open field apparatus (arena of 50×50 cm) contained two identical objects (samples) and a mouse was placed in the apparatus facing the wall and allowed to freely explore the objects. At the end of the 5-min session of Phase 1, the mouse was put back into its home cage for 3 hours. […] The time spent sniffing/touching each object was measured. The data was analyzed using the following formula: D1=b−a, when ‘a’ designated the time of exploration of the familiar object and ‘b’ designated the time of exploration of the novel object. […]

PC12 cells = settings: ZnCl2 400 μM, increasing concentrations of peptide

T1 sequence (Q9UPY8 whole entry): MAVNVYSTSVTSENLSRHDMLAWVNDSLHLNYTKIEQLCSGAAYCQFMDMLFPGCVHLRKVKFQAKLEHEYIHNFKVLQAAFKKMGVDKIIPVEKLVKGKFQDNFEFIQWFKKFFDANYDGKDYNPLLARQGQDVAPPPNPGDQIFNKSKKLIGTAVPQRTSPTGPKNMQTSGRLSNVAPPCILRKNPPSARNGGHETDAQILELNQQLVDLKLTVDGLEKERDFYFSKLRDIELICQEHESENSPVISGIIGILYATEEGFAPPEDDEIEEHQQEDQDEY

## NAPVSKIPQ (synthetic novel peptide core sequence SKIP derived from hybrid microtubule end-binding protein 3 (EB3)- binding microtubule plus-end tracking proteins (+TIPs) and activity-dependent neurotrophic factor (ADNF) active core site (NAP))
[1]
  competition for EB3 binding to column-bound NAP: no binding of EB3 to the column bound NAP
ADNP+/− mice
  object recognition, Phase 2 short retention (discrimination index D1): improved the memory
PC12 cells
  protection against zinc-induced cell death: protected by the addition of SKIP, over a wide range of concentrations
